{"source": "patent US7811790B2", "about": "“Polymyxin synthetase and gene cluster thereof” (priority 2005, dated 2010)", "origin": "cited, not measured here", "key": {"[1]": {"details": "therapeutic use"}, "[2]": {"details": "water and organic solvent"}, "[3]": {"tested_on": "antibiotics-resistant Klebsiella pneumoniae", "details": "ventriculis caused by antibiotics-resistant Klebsiella pneumoniae"}, "[4]": {"tested_on": "Pseudomonas aeruginosa having resistance against almost all antibiotics", "details": "3 osteomyelitis patients"}, "[5]": {"tested_on": "Acinetobacter having resistance against antibiotics", "details": "meningitis caused by antibiotic-resistant Acinetobacter"}, "[6]": {"tested_on": "Pseudomonas aeruginosa and Acinetobacter baumannii exhibiting resistance against the conventional antibiotics", "details": "intravenously injected, 60 patients"}}}
{"substance": "polymyxin", "values": [{"measurement": "induced toxicity", "setting": "[1]", "result": "severe neurotoxicity and hepatotoxicity"}, {"measurement": "side effects", "setting": "[1]", "result": "serious side effects such as fever, eruption and pain"}, {"measurement": "solubility", "setting": "[2]", "result": "soluble in both water and an organic solvent"}]}
{"substance": "polymyxin B", "values": [{"measurement": "effect on gram-positive bacteria", "setting": "gram-positive bacteria", "result": "no effect"}, {"measurement": "effect on anaerobic bacteria", "setting": "anaerobic bacteria", "result": "no effect"}, {"measurement": "outcome of treatment of ventriculis", "setting": "[3]", "result": "successfully treated"}, {"measurement": "effect on fungi", "setting": "fungi", "result": "no effect"}]}
{"substance": "polymyxin B sulfate", "values": [{"measurement": "killed % of Pseudomonas aeruginosa", "setting": "Pseudomonas aeruginosa; at the concentration of 0.01 μg/ml", "result": 88, "unit": "%"}]}
{"substance": "polymyxin E", "values": [{"measurement": "effect on gram-positive bacteria", "setting": "gram-positive bacteria", "result": "no effect"}, {"measurement": "effect on anaerobic bacteria", "setting": "anaerobic bacteria", "result": "no effect"}, {"measurement": "outcome of treatment of osteomyelitis", "setting": "[4]", "result": "improved"}, {"measurement": "outcome of treatment of meningitis", "setting": "[5]", "result": "successfully treated"}, {"measurement": "patients improved", "setting": "[6]", "result": 58, "unit": "%"}, {"measurement": "effect on fungi", "setting": "fungi", "result": "no effect"}, {"measurement": "concentration showing lethal effect", "setting": "Pseudomonas aeruginosa; organism not restated in the sentence, follows the Pseudomonas aeruginosa sentence", "result": 0.1, "unit": "µg/mL"}]}
